# Patent US20040102652A1, “Optically active2-aminotetralin derivatives, the processes for the preparation thereof and the therapeutical use of pharmaceutical compositions containing them” (priority 2000, published 2004)
# “Also recorded” adds a separate entry of the source. Where two headings read alike, the source gives them in different places.
# Tests used:
# [1] = Diffraction studies of crystal modifications; settings: temperature dependent
# β1-receptor [2] = molecular target: β1-receptor (Cavia porcellus, UniProt H0W3H1); settings: guinea pig, read-out: effectiveness (α)
# β2-receptor = molecular target: T1, β2-receptor (Rattus norvegicus, UniProt P10608); assay: Binding study, rat lung, [3H]-(−)dihydroalprenolol
# T1 construct: from tissue; host or cells: rat lung
# Method: (§1) The affinity of the enantiomers for adrenergic and dopaminergic receptors was tested by binding studies in cerebral and peripheral tissues. The results are reported in Table 1 compared with CHF 1024 racemate in terms of inhibition constant (Ki) expressed as nanomolar concentration (nM).
# β1-receptor [3] = molecular target: T2, β1-receptor (Rattus norvegicus, UniProt P18090); assay: Binding study, rat lung, [3H]-(−)dihydroalprenolol
# T2 construct: from tissue; host or cells: rat lung
# Method: as §1
# Central DA2-receptor = Central DA2-receptor (Rattus norvegicus, UniProt P61169); assay: Binding study, rat striatum, [3H]-spiperone; settings: for Ki: rat striatum, [3H]-spiperone
# Method: as §1
# Central DA1 receptor = molecular target: T3, Central DA1 receptor (Rattus norvegicus, UniProt P18901); assay: Binding study, rat striatum, [3H]-SCH23390
# T3 construct: from tissue; host or cells: rat striatum
# Method: as §1
# Central α2-receptor = assay: Binding study, rat cerebral cortex, [3H]-rauwolscine; settings: for Ki: rat cerebral cortex, [3H]-rauwolscine
# Method: as §1
# β2-receptors = molecular target: T4, β2-receptors (Cavia porcellus, UniProt Q8K4Z4); assay: Guinea-pig tracheal strips contracted with carbachol, relaxing effect
# T4 construct: was also tested in isolated tissue preparations; from tissue; host or cells: guinea-pig tracheal strips
# Central α1-receptor = assay: Binding study, rat cerebral cortex, [3H]-prazosin
# Method: as §1
# [4] = molecular target: Pre-synaptic DA2 and α2 receptor; assay: Perfused rabbit ear artery, inhibition of electrically-induced contraction; settings: for pD2 (−log EC50): EC50 in M
# Method: (§2) The pharmacological activity of the enantiomers toward the same receptors was also tested in isolated tissue preparations. […] EC50 is the concentration inducing 50% of the maximal response and is expressed in mols/liter (M).
# [5] = molecular target: Pre-synaptic DA2 receptor (Oryctolagus cuniculus, UniProt G1T1Q0); assay: Electrically stimulated rabbit rectococcigeus muscle, inhibition of contraction; settings: read-out: effectiveness (α)
# Method: as §2
# α1 receptor = settings: background statement; cited from earlier work
# [6] = tested on: plasma and tissular esterases; settings: after administration through different routes (oral, transdermal); cited from earlier work
# [7] = after oral administration of the racemate
# [8] = tested on: anaesthetized normotensive rats; assay: Arterial pressure in anaesthetized normotensive rats, intravenous infusion; type: in vivo, rat; settings: intravenous infusion for 30 min
# Method: In anaesthetized normotensive rats with recording of the arterial pressure, the effects induced by intravenous infusion for 30 min of CHF 1024 enantiomers compared with the racemate were evaluated. Control animals only received the vehicle. The results are reported in FIG. 1 as mean values and standard error.
# [9] = tested on: conscious spontaneously hypertensive rats; assay: Arterial pressure and heart rate in conscious spontaneously hypertensive rats (telemetry); type: in vivo, rat; settings: for recovery to basal values after treatment: after interruption of s.c. treatment; for effect on heart rate (words, summary): subcutaneous administration for 7 days
# [10] = rat lung, [3H]-(−)dihydroalprenolol, read-out: Ki
# [11] = rat striatum, [3H]-SCH23390, read-out: Ki
# [12] = EC50 in M, guinea-pig tracheal strips, read-out: pD2 (−log EC50) (converted)
# [13] = higher dose (6 nmol/kg/min) s.c., 7 days
# Sequence of Pre-synaptic DA2 receptor (G1T1Q0 1-443): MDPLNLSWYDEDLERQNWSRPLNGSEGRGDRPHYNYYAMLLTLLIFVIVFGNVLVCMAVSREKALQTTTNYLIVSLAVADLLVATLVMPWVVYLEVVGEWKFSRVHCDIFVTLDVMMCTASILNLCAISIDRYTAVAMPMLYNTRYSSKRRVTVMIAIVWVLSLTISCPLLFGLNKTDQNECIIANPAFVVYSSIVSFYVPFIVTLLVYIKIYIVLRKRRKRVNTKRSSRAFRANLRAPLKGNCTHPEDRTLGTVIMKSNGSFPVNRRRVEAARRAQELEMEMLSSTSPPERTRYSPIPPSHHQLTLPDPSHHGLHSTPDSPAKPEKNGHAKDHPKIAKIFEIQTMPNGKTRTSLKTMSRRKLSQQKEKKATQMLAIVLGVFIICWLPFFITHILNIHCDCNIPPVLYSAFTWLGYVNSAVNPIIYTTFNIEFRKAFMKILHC
# T4 sequence (Q8K4Z4 whole entry): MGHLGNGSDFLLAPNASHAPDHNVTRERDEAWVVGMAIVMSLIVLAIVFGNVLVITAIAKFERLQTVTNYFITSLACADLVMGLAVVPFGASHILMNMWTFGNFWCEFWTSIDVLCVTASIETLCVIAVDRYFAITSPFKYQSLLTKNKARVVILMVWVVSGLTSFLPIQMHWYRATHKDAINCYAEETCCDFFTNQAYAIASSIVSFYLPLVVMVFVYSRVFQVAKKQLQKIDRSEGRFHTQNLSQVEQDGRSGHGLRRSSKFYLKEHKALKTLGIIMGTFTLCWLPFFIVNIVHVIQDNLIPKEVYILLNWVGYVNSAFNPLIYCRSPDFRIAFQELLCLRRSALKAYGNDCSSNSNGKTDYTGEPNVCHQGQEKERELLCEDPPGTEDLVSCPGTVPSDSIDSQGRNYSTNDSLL
# Sequence of β1-receptor (Cavia porcellus, UniProt H0W3H1) (H0W3H1 1-470): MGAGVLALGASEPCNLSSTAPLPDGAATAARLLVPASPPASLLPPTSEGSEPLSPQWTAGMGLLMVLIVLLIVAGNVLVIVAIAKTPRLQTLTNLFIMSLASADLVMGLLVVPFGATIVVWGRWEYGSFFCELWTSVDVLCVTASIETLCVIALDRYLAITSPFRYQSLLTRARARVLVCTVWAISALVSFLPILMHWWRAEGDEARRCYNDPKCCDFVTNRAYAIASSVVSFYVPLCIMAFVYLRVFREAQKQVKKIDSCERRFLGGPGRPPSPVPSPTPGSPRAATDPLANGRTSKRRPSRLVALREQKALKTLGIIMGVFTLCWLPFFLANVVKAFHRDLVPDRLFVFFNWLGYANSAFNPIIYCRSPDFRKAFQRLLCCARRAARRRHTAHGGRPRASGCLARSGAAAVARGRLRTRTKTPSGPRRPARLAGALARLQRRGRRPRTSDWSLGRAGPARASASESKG
# T2 sequence (P18090 whole entry): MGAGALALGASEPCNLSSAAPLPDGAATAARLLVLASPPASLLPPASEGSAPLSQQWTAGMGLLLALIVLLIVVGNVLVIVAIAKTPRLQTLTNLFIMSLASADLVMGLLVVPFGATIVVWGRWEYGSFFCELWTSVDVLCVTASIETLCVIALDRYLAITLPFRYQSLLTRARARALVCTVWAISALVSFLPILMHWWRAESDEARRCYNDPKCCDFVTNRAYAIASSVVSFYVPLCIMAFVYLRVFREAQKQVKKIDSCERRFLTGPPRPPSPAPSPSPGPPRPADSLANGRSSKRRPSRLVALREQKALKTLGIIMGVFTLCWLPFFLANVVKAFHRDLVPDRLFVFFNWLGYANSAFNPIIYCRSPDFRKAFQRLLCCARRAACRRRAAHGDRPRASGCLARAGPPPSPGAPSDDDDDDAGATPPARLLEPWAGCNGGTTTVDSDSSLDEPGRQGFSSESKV
# T1 sequence (P10608 whole entry): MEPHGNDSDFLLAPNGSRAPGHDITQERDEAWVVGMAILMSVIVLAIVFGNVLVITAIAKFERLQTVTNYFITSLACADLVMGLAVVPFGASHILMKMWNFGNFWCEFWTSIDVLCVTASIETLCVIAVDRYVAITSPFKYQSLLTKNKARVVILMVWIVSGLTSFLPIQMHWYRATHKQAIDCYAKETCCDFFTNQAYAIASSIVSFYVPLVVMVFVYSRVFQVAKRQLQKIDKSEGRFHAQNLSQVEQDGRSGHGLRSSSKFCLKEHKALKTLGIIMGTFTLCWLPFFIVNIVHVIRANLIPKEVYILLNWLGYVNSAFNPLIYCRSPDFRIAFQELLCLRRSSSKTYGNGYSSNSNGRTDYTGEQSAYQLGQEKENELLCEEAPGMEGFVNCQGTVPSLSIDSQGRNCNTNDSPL
# T3 sequence (P18901 whole entry): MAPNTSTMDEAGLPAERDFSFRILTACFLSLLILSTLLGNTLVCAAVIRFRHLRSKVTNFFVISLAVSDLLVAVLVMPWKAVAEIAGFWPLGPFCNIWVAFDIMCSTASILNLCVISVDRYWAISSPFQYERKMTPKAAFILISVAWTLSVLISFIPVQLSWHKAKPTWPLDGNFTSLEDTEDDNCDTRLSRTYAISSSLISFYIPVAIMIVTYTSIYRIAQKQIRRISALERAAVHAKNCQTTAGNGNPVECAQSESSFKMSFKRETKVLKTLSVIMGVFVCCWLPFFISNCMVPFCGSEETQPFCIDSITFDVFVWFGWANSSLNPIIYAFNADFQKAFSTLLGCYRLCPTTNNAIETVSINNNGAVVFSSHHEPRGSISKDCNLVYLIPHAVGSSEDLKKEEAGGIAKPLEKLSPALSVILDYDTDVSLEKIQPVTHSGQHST
# Sequence of Central DA2-receptor (P61169 whole entry): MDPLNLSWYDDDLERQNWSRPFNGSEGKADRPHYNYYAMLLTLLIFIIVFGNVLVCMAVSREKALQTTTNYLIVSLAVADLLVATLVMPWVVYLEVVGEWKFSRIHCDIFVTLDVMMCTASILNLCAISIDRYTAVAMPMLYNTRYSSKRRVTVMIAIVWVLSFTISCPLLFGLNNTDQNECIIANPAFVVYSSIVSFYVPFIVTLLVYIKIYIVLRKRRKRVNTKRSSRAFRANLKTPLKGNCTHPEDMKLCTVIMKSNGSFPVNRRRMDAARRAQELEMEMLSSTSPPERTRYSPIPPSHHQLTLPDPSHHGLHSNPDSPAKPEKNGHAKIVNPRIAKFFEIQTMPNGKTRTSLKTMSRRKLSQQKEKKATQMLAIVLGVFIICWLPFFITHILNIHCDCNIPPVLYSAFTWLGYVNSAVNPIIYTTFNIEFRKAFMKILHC
SMILES,structural rearrangement of the crystal form (polymorphic stability) [1],Emax (β1-receptor [2]) [%],Ki (Central α2-receptor) [nM],effectiveness (α) (β2-receptors; guinea-pig tracheal strips),Ki (Central α1-receptor) [µM],pD2 (−log EC50) ([4]; rabbit ear artery),effectiveness (α) ([4]; rabbit ear artery),Emax [5] [%],effect on arterial pressure (hypotensive response) [8],Ki (β2-receptor; [10]) [nM],Ki (β1-receptor [3]; [10]) [µM],Ki (Central DA2-receptor) [nM],Ki (Central DA1 receptor; [11]) [µM],EC50 (β2-receptors; [12]) [nM],"effect on heart rate ([9]; 3 nmol/kg/min s.c., 7 days)",recovery to basal values after treatment [9],"effect on heart rate (words, summary) [9]",also measured
"CN[C@H]1CCc2c(ccc(OC(=O)C(C)C)c2OC(=O)C(C)C)C1.Cl [CHF 1810, (−)-(S)-5,6-diisobutyroyloxy-2-methylaminotetralin hydrochloride]",does not show any structural rearrangement below 100 °C,–,–,–,–,–,–,–,–,–,–,–,–,–,–,–,–,–
"CNC1CCc2c(ccc(O)c2O)C1 (racemic) [CHF 1024, (±)-5,6-dihydroxy-2-methylaminotetralin, reference compound]",–,81,260,0.96,16,9.0,0.94,96,–,–,–,–,–,–,–,–,–,Ki (β2-receptor): 1500 nM; Ki (β1-receptor [3]): 45 µM; Ki (Central DA2-receptor; read-out: Ki): 290 nM; Ki (Central DA1 receptor): 13 µM; EC50 (β2-receptors): 251 nM; agonist activity on α1 receptor (α1 receptor): negligible
"CNC1CCc2c(ccc(OC(=O)C(C)C)c2OC(=O)C(C)C)C1 (racemic) [CHF 1035, (±)-(R,S)-5,6-Diisobutyroyloxy-2-methylaminotetralin]",form I shows two remarkable structural rearrangements,–,–,–,–,–,–,–,–,–,–,–,–,–,–,–,–,conversion into the desesterified form CHF 1024 [6]: quickly and completely converted; AUC of the dextro form relative to that of the laevo form [7]: about one half
"CN[C@H]1CCc2c(ccc(O)c2O)C1 [CHF 1870, (−)-(S)-5,6-dihydroxy-2-methylaminotetralin]",–,91,130,0.97,15,9.6,0.92,91,dose-dependent reduction of the arterial pressure which was maintained even after infusion was discontinued; also recorded: hypotensive response slightly lower but remarkably longer-lasting than that of the racemate,1000,40,120,6.8,398,greater reduction of heart rate compared with the racemate,took place more slowly,more marked reduction of heart rate than an equivalent dose of the racemate,"affinity for DA2-dopaminergic receptors relative to the dextro enantiomer (CHF 1869) (Central DA2-receptor; from Table 1): about 20 times; affinity for α2-adrenergic receptors relative to the dextro enantiomer (CHF 1869) (Central α2-receptor; from Table 1): ~10 times; reduction of arterial pressure ([9]; 3 nmol/kg/min s.c. osmotic minipump, 7 days): 20-30 mmHg; reduction of heart rate [9, 13]: about 70 beats/minute; potency relative to its optical antipode ([4]; rabbit ear artery): at least 10000 times"
CN[C@@H]1CCc2c(ccc(O)c2O)C1 [CHF 1869],–,83,1600,0.97,21,<5.0,0.92,87,rapid onset and disappearance of the hypotensive effects; also recorded: more rapid but less lasting response,1400,90,2400,7.4,251,no reduction of heart rate,faster than with CHF 1870,no reduction of heart rate,"hypotensive effect ([9]; 3 nmol/kg/min s.c., 7 days): slight, although noticeable, hypotensive effect; effect on heart rate [9, 13]: no reduction of heart rate is observed, which even increases during the first 2-3 days of treatment; hypotensive response [9, 13]: comparable to that caused by its optical antipode; activity on α2 and DA2 receptors ([4]; isolated tissue preparations): poor activity on α2 and DA2 receptors"
